Assay results reported in ChEMBL document CHEMBL1201862, “PubChem BioAssay data set” (2004).
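Assay format: 96-well plates, 48-hour exposure. At the GI50, growth is halved.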 Calls of active or inactive are those of the source. Rule as the data show it: active = GI50 up to about 1.1 µM and inactive = higher.

What was measured:
Test in all cases: DTP human tumour cell line panel, 48 h
[1] = tested on: NCI-H23
[2] = tested on: OVCAR-8
[3] = tested on: SK-OV-3
[4] = tested on: OVCAR-5
[5] = tested on: A498
[6] = tested on: SNB-75
[7] = tested on: 786-0
[8] = tested on: SN12C
[9] = tested on: COLO 205
[10] = tested on: RPMI-8226
[11] = tested on: K562
[12] = tested on: EKVX
[13] = tested on: MDA-N
[14] = tested on: LOX IMVI
[15] = tested on: A549
[16] = tested on: UACC-257
[17] = tested on: HCT-116
[18] = tested on: SF-295
[19] = tested on: MOLT-4
[20] = tested on: BT-549

Measured: GI50

CC(NP(=O)(c1ccccc1)c1ccccc1)c1ccccc1 (stereo not given)
inactive: [1] > 100 µM | [2] > 100 µM | [3] > 100 µM | [4] > 100 µM | [5] > 100 µM | [6] > 100 µM | [7] > 100 µM | [8] > 100 µM | [9] > 100 µM | [10] > 100 µM | [11] > 100 µM | [12] > 100 µM | [13] > 100 µM | [14] > 100 µM | [15] > 100 µM | [16] > 100 µM | [17] > 100 µM | [18] > 100 µM | [19] > 100 µM | [20] > 100 µM

O=C1CC(=O)c2c(N3CCCC3)sc(N3CCCC3)c21
inactive: [1] > 100 µM | [2] > 100 µM | [3] > 100 µM | [4] > 100 µM | [5] > 100 µM | [6] > 100 µM | [7] > 100 µM | [8] > 100 µM | [9] > 100 µM | [10] > 100 µM | [11] 57.4 µM | [12] > 100 µM | [13] > 100 µM | [14] > 100 µM | [15] > 100 µM | [16] > 100 µM | [17] > 100 µM | [18] > 100 µM | [19] 59 µM | [20] > 100 µM
